Each structure is given as a SMILES string. pIC50: −log10 of the molar value.

Assay [1] has as its target T1, MAGL (Mus musculus (Mouse), UniProt O35678). The experiment in a line: In vitro competitive activity-based protein profiling, mouse brain proteome. Conditions: for inhibition at 1 µM: mouse; for pIC50: mouse brain. Type of assay: biochemical.
For assay [2], the target named is T1, MAGL. The assay can be described thus: Mouse brain proteomes from inhibitor treated mice (oral gavage, brain MAGL activity 4 h after administration). The class given is in vivo. Conditions: 5 mg/kg oral gavage. As to the method: Preparation of Mouse Brain Proteomes from Inhibitor Treated Mice.
Inhibitors were administered to wild-type C57B1/6J by oral gavage in a vehicle of polyethylene glycol.

Assay [3] concerns the target MAGL (Homo sapiens (Human), UniProt Q99685). The assay can be described thus: In vitro competitive activity-based protein profiling (gel-based, FP-Rh or HT-01 probe). Type of assay: biochemical. Conditions: human PC3; read-out: MAGL Human PC3 (IC50). On the procedure:
In Vitro Competitive Activity-Based Protein Profiling.
Proteomes (human prefrontal cortex or cell membrane fractions) (50 μL, 1.0 mg/mL total protein concentration) were preincubated with varying concentrations of inhibitors at 37° C. After 30 min, FP-Rh or HT-01 (1.0 μL, 50 μM in DMSO) was added and the mixture was incubated for another 30 min at room temperature. Reactions were quenched with SDS loading buffer (15 μL—4×) and run on SDS-PAGE.

T1 sequence (O35678 whole entry): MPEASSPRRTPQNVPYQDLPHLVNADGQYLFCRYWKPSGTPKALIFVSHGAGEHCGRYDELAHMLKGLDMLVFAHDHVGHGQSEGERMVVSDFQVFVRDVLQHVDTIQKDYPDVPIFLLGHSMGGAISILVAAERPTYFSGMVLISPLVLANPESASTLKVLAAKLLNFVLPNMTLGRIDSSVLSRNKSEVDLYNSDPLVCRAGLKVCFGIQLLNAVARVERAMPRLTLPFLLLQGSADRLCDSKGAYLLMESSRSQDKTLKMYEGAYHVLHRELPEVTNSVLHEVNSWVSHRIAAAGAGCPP
Sequence of MAGL (Homo sapiens (Human), UniProt Q99685) (Q99685 whole entry): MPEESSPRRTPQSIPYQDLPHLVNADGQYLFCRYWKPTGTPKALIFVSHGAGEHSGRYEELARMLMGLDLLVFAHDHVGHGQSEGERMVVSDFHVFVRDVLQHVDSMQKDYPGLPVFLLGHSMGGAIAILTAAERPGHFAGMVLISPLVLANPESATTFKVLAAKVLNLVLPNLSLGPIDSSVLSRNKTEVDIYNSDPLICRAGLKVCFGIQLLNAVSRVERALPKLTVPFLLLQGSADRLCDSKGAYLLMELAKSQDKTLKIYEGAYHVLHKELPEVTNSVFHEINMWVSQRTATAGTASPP

What is called inhibition is the percentage by which the read-out fell short of the control. Low readings indicate a weak effect, high ones a strong effect. The term pIC50 denotes the negative decadic logarithm of the IC50, by convention in mol/L. As to `O=C(OC(C(F)(F)F)C(F)(F)F)N1CCC2(CCCN2Cc2cnc(N3CCCC3)s2)CC1` [Example 226, 1,1,1,3,3,3-Hexafluoropropan-2-yl 1-((2-(pyrrolidin-1-yl)thiazol-5-yl)methyl)-1,8-diazaspiro[4.5]decane-8-carboxylate], at MAGL [1], the inhibition at 1 µM was greater than 75% and the pIC50 is greater than 7.00. Further, the “MAGL % Inhibition at 5 mg/kg (Mouse)” value on MAGL [2] is on record as “### (% inhibition is greater than or equal to 75%)”. The negative-log IC50 (pIC50) at MAGL [3] was greater than 7.00.

As for `O=C(OC(C(F)(F)F)C(F)(F)F)N1CCC2(CCCN2Cc2cnc3ccccn23)CC1` [Example 228, 1,1,1,3,3,3-Hexafluoropropan-2-yl 1-(imidazo [1,2-a]pyridin-3-ylmethyl)-1,8-diazaspiro[4.5]decane-8-carboxylate], on MAGL [1], the inhibition at 1 µM was greater than 75% and the pIC50 is greater than 7.00. Besides, on MAGL [2], the “MAGL % Inhibition at 5 mg/kg (Mouse)” value is recorded as “### (% inhibition is greater than or equal to 75%)”. Moreover, at MAGL [3], the pIC50 was greater than 7.00.

`O=C(OC(C(F)(F)F)C(F)(F)F)N1CCC2(CCCN2Cc2cnc3ccc(Cl)cn23)CC1` [Example 229, 1,1,1,3,3,3-Hexafluoropropan-2-yl 1-((6-chloroimidazo[1,2-a]pyridin-3-yl)methyl)-1,8-diazaspiro[4.5]decane-8-carboxylate] showed an inhibition at 1 µM on MAGL [1] greater than 75%. Moreover, the pIC50 on MAGL [1] and at MAGL [3] was greater than 7.00 throughout. Besides, the “MAGL % Inhibition at 5 mg/kg (Mouse)” value at MAGL [2] was “### (% inhibition is greater than or equal to 75%)”.

These data come from patent US11142526B2, “Spirocycle compounds and methods of making and using same” (H. Lundbeck A/S, priority 2017, dated 2021).
